These results are taken from the supplement of paper PMC10307832.

For the first test, the system named is COR-L23. The test can be described thus: relative viability (nuclei count vs DMSO), 5 days (fraction); higher = more cells survive. The note with it: first compound 8 µM. The method in brief:
(§1)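 Each reported value is a median over duplicate plates. It expresses relative viability: treated-well nuclei count divided by vehicle-well nuclei count. Lung cancer cell lines in 1536-well plates were dosed by pin tool a day after seeding, alone with one drug or with a fixed anchor-drug dose plus five library-drug doses (not always all listed) in √10 steps, and nuclei were counted after 5 days.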
Compound `C=C1C(=O)O[C@@H](CCCCCCCC)[C@@H]1C(=O)O` [C-75] + CC(=O)c1c(C)c2cnc(Nc3ccc(N4CCNCC4)cn3)nc2n(C2CCCC2)c1=O [Palbociclib] (partner 0.5 µM) gave a relative viability of 0.28.
`C=C1C(=O)O[C@@H](CCCCCCCC)[C@@H]1C(=O)O` [C-75] + Nc1ncn([C@H]2C[C@H](O)[C@@H](CO)O2)c(=O)n1 [Decitabine] (partner 2 µM) returned a relative viability of 0.396.

Another test concerns NCI-H522. Described as above. The note with it: first compound 0.08 µM. The method in brief:
as §1
Turning to `Oc1nc(-c2ccc(C(F)(F)F)cc2)nc2c1CSCC2` [XAV939] + O=C(CCCCCCC(=O)Nc1ccccc1)NO [Vorinostat] (partner 1 µM), the relative viability is 1.17.
On the same count and under the same terms, for `Oc1nc(-c2ccc(C(F)(F)F)cc2)nc2c1CSCC2` [XAV939] + O=C(c1cc(Cc2n[nH]c(=O)c3ccccc23)ccc1F)N1CCN(C(=O)C2CC2)CC1 [Olaparib] (partner 8 µM) the value was 0.887; for `Oc1nc(-c2ccc(C(F)(F)F)cc2)nc2c1CSCC2` [XAV939] + CC(=O)c1c(C)c2cnc(Nc3ccc(N4CCNCC4)cn3)nc2n(C2CCCC2)c1=O [Palbociclib] (partner 0.5 µM), 1.05.
Take `C=C1C(=O)O[C@@H](CCCCCCCC)[C@@H]1C(=O)O` [C-75] + CC(=O)c1c(C)c2cnc(Nc3ccc(N4CCNCC4)cn3)nc2n(C2CCCC2)c1=O [Palbociclib] (partner 0.5 µM): the relative viability stood at 1.27.
The compound `C=C1C(=O)O[C@@H](CCCCCCCC)[C@@H]1C(=O)O` [C-75] + Nc1ncn([C@H]2C[C@H](O)[C@@H](CO)O2)c(=O)n1 [Decitabine] (partner 2 µM) displayed a relative viability of 0.741.

The same test, now with this note: first compound 0.253 µM.
`Oc1nc(-c2ccc(C(F)(F)F)cc2)nc2c1CSCC2` [XAV939] + O=C(CCCCCCC(=O)Nc1ccccc1)NO [Vorinostat] (partner 1 µM): the relative viability worked out at 0.851.
In turn, `Oc1nc(-c2ccc(C(F)(F)F)cc2)nc2c1CSCC2` [XAV939] + O=C(c1cc(Cc2n[nH]c(=O)c3ccccc23)ccc1F)N1CCN(C(=O)C2CC2)CC1 [Olaparib] (partner 8 µM) showed a relative viability of 0.649.
Turning to `Oc1nc(-c2ccc(C(F)(F)F)cc2)nc2c1CSCC2` [XAV939] + CC(=O)c1c(C)c2cnc(Nc3ccc(N4CCNCC4)cn3)nc2n(C2CCCC2)c1=O [Palbociclib] (partner 0.5 µM), the relative viability turned out to be 0.884.
The same measure, in the same setting: to `C=C1C(=O)O[C@@H](CCCCCCCC)[C@@H]1C(=O)O` [C-75] + CC(=O)c1c(C)c2cnc(Nc3ccc(N4CCNCC4)cn3)nc2n(C2CCCC2)c1=O [Palbociclib] (partner 0.5 µM) belongs 0.989; to `C=C1C(=O)O[C@@H](CCCCCCCC)[C@@H]1C(=O)O` [C-75] + Nc1ncn([C@H]2C[C@H](O)[C@@H](CO)O2)c(=O)n1 [Decitabine] (partner 2 µM), 0.693.

Staying with this test, now noted: first compound 0.8 µM.
`Oc1nc(-c2ccc(C(F)(F)F)cc2)nc2c1CSCC2` [XAV939] + O=C(CCCCCCC(=O)Nc1ccccc1)NO [Vorinostat] (partner 1 µM): the relative viability was 0.718.
The compound `Oc1nc(-c2ccc(C(F)(F)F)cc2)nc2c1CSCC2` [XAV939] + O=C(c1cc(Cc2n[nH]c(=O)c3ccccc23)ccc1F)N1CCN(C(=O)C2CC2)CC1 [Olaparib] (partner 8 µM) registered a relative viability of 0.63.
Same read-out and setting: to `Oc1nc(-c2ccc(C(F)(F)F)cc2)nc2c1CSCC2` [XAV939] + CC(=O)c1c(C)c2cnc(Nc3ccc(N4CCNCC4)cn3)nc2n(C2CCCC2)c1=O [Palbociclib] (partner 0.5 µM) belongs 0.973; to `C=C1C(=O)O[C@@H](CCCCCCCC)[C@@H]1C(=O)O` [C-75] + CC(=O)c1c(C)c2cnc(Nc3ccc(N4CCNCC4)cn3)nc2n(C2CCCC2)c1=O [Palbociclib] (partner 0.5 µM), 1.06.
The compound `C=C1C(=O)O[C@@H](CCCCCCCC)[C@@H]1C(=O)O` [C-75] + Nc1ncn([C@H]2C[C@H](O)[C@@H](CO)O2)c(=O)n1 [Decitabine] (partner 2 µM) came in with a relative viability of 0.763.

Still in this test, the particulars now being: first compound 2.53 µM.
For `Oc1nc(-c2ccc(C(F)(F)F)cc2)nc2c1CSCC2` [XAV939] + O=C(CCCCCCC(=O)Nc1ccccc1)NO [Vorinostat] (partner 1 µM), the relative viability was determined as 0.846.
Same read-out and setting: for `Oc1nc(-c2ccc(C(F)(F)F)cc2)nc2c1CSCC2` [XAV939] + O=C(c1cc(Cc2n[nH]c(=O)c3ccccc23)ccc1F)N1CCN(C(=O)C2CC2)CC1 [Olaparib] (partner 8 µM) the value was 0.689; for `Oc1nc(-c2ccc(C(F)(F)F)cc2)nc2c1CSCC2` [XAV939] + CC(=O)c1c(C)c2cnc(Nc3ccc(N4CCNCC4)cn3)nc2n(C2CCCC2)c1=O [Palbociclib] (partner 0.5 µM), 1.03; for `C=C1C(=O)O[C@@H](CCCCCCCC)[C@@H]1C(=O)O` [C-75] + CC(=O)c1c(C)c2cnc(Nc3ccc(N4CCNCC4)cn3)nc2n(C2CCCC2)c1=O [Palbociclib] (partner 0.5 µM), 0.698.
The same measure, in the same setting: for `C=C1C(=O)O[C@@H](CCCCCCCC)[C@@H]1C(=O)O` [C-75] + Nc1ncn([C@H]2C[C@H](O)[C@@H](CO)O2)c(=O)n1 [Decitabine] (partner 2 µM) the value was 0.555.

Staying with this test, now noted: first compound 8 µM.
Regarding `C=C1C(=O)O[C@@H](CCCCCCCC)[C@@H]1C(=O)O` [C-75] + CC(=O)c1c(C)c2cnc(Nc3ccc(N4CCNCC4)cn3)nc2n(C2CCCC2)c1=O [Palbociclib] (partner 0.5 µM), the relative viability stood at 0.779.
`C=C1C(=O)O[C@@H](CCCCCCCC)[C@@H]1C(=O)O` [C-75] + Nc1ncn([C@H]2C[C@H](O)[C@@H](CO)O2)c(=O)n1 [Decitabine] (partner 2 µM) returned a relative viability of 0.599.

Another test deals with ABC-1. The test is described as above. The note with it: first compound 0.08 µM. The method, boiled down:
as §1
For `C=C1C(=O)O[C@@H](CCCCCCCC)[C@@H]1C(=O)O` [C-75] + CC(=O)c1c(C)c2cnc(Nc3ccc(N4CCNCC4)cn3)nc2n(C2CCCC2)c1=O [Palbociclib] (partner 0.5 µM), the relative viability stood at 0.711.
Still for that read-out and setting: for `C=C1C(=O)O[C@@H](CCCCCCCC)[C@@H]1C(=O)O` [C-75] + Nc1ncn([C@H]2C[C@H](O)[C@@H](CO)O2)c(=O)n1 [Decitabine] (partner 2 µM) the value was 1.03.

Staying with this test, now noted: first compound 0.253 µM.
`Oc1nc(-c2ccc(C(F)(F)F)cc2)nc2c1CSCC2` [XAV939] + O=C(CCCCCCC(=O)Nc1ccccc1)NO [Vorinostat] (partner 1 µM) displayed a relative viability of 0.767.
Same read-out and setting: to `Oc1nc(-c2ccc(C(F)(F)F)cc2)nc2c1CSCC2` [XAV939] + O=C(c1cc(Cc2n[nH]c(=O)c3ccccc23)ccc1F)N1CCN(C(=O)C2CC2)CC1 [Olaparib] (partner 8 µM) belongs 0.792; to `Oc1nc(-c2ccc(C(F)(F)F)cc2)nc2c1CSCC2` [XAV939] + CC(=O)c1c(C)c2cnc(Nc3ccc(N4CCNCC4)cn3)nc2n(C2CCCC2)c1=O [Palbociclib] (partner 0.5 µM), 0.587; to `C=C1C(=O)O[C@@H](CCCCCCCC)[C@@H]1C(=O)O` [C-75] + CC(=O)c1c(C)c2cnc(Nc3ccc(N4CCNCC4)cn3)nc2n(C2CCCC2)c1=O [Palbociclib] (partner 0.5 µM), 0.935.
